Assay results as given in PubChem BioAssay (NCI).
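Protocol summary: plate cells (96-well), add compound at 5 concentrations, incubate 48 h, interpolate endpoints linearly. GI50 marks 50% less growth. At the TGI there is no net growth.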

How the values were obtained:
Experiment in all cases: DTP human tumour cell line panel, 48 h
SN12C renal = system: SN12C renal
786-0 renal = system: 786-0 renal
UACC-257 melanoma = system: UACC-257 melanoma
HCT-116 colon = system: HCT-116 colon
HCT-15 colon = system: HCT-15 colon
IGROV1 ovarian = system: IGROV1 ovarian
A498 renal = system: A498 renal
HCC-2998 colon = system: HCC-2998 colon
UO-31 renal = system: UO-31 renal
SNB-75 CNS = system: SNB-75 CNS

COc1ccc(Cn2cnc3cc(C(=O)Nc4cccc5ccccc45)ccc32)c(OC)c1
GI50 (SN12C renal): 0.0691 µM | TGI (SN12C renal): > 100 µM | GI50 (786-0 renal): 0.045 µM | TGI (786-0 renal): > 100 µM | GI50 (UACC-257 melanoma): 39 µM | TGI (UACC-257 melanoma): > 100 µM | GI50 (HCT-116 colon): 0.0374 µM | TGI (HCT-116 colon): 4.49 µM | GI50 (HCT-15 colon): 0.0443 µM | TGI (HCT-15 colon): > 51.1 µM | GI50 (IGROV1 ovarian): 0.0653 µM | TGI (IGROV1 ovarian): > 100 µM | GI50 (A498 renal): 0.0226 µM | TGI (A498 renal): 0.0771 µM | GI50 (HCC-2998 colon): 0.197 µM | TGI (HCC-2998 colon): 14.6 µM | GI50 (UO-31 renal): 0.0759 µM | TGI (UO-31 renal): > 100 µM

c1ccc2c(-c3nc4ccccc4[nH]3)cccc2c1
GI50 (SN12C renal): 5.03 µM | TGI (SN12C renal): > 100 µM | GI50 (786-0 renal): 5.5 µM | TGI (786-0 renal): > 100 µM | GI50 (UACC-257 melanoma): 3.87 µM | TGI (UACC-257 melanoma): 84.4 µM | GI50 (HCT-116 colon): 3.47 µM | TGI (HCT-116 colon): 96.8 µM | GI50 (HCT-15 colon): 1.82 µM | TGI (HCT-15 colon): > 100 µM | GI50 (SNB-75 CNS): 2.35 µM | TGI (SNB-75 CNS): 13.5 µM | GI50 (IGROV1 ovarian): 5.01 µM | TGI (IGROV1 ovarian): 40.3 µM | GI50 (A498 renal): 1.11 µM | TGI (A498 renal): 6.52 µM | GI50 (HCC-2998 colon): 6.96 µM | TGI (HCC-2998 colon): > 100 µM | GI50 (UO-31 renal): 4.72 µM | TGI (UO-31 renal): 33.3 µM

O=C(CC/C(CC(=O)c1ccc(Cl)cc1)=N/O)Nc1ccc(Cl)c(Cl)c1
TGI (SN12C renal): > 100 µM | TGI (786-0 renal): > 100 µM | TGI (UACC-257 melanoma): > 100 µM | TGI (HCT-116 colon): > 100 µM | TGI (HCT-15 colon): > 100 µM | TGI (SNB-75 CNS): > 100 µM | TGI (IGROV1 ovarian): > 100 µM | TGI (A498 renal): > 100 µM | TGI (UO-31 renal): > 100 µM

COc1cc(OC)c2cc(C(=O)O)c(=O)oc2c1
GI50 (SN12C renal): > 100 µM | TGI (SN12C renal): > 100 µM | GI50 (786-0 renal): > 95.4 µM | TGI (786-0 renal): > 100 µM | GI50 (UACC-257 melanoma): > 85.9 µM | TGI (UACC-257 melanoma): > 100 µM | GI50 (HCT-116 colon): > 100 µM | TGI (HCT-116 colon): > 100 µM | GI50 (HCT-15 colon): > 100 µM | TGI (HCT-15 colon): > 100 µM | GI50 (SNB-75 CNS): > 100 µM | TGI (SNB-75 CNS): > 100 µM | GI50 (IGROV1 ovarian): > 84.9 µM | TGI (IGROV1 ovarian): > 100 µM | GI50 (A498 renal): > 21.4 µM | TGI (A498 renal): > 75 µM | GI50 (HCC-2998 colon): > 100 µM | TGI (HCC-2998 colon): > 100 µM | GI50 (UO-31 renal): > 61.7 µM | TGI (UO-31 renal): > 100 µM

O=C(Nc1ccc(Cl)cc1)c1ccc([N+](=O)[O-])o1
GI50 (SN12C renal): 1.68 µM | TGI (SN12C renal): 4.12 µM | GI50 (786-0 renal): 1.91 µM | TGI (786-0 renal): 4.05 µM | GI50 (UACC-257 melanoma): 1.97 µM | TGI (UACC-257 melanoma): 5.25 µM | GI50 (HCT-116 colon): 1.39 µM | TGI (HCT-116 colon): 3.11 µM | GI50 (HCT-15 colon): 1.48 µM | TGI (HCT-15 colon): 3.43 µM | GI50 (SNB-75 CNS): 1.63 µM | TGI (SNB-75 CNS): 5.38 µM | GI50 (IGROV1 ovarian): 3.25 µM | TGI (IGROV1 ovarian): 11.2 µM | GI50 (A498 renal): 3.46 µM | TGI (A498 renal): 14.8 µM | GI50 (HCC-2998 colon): 1.44 µM | TGI (HCC-2998 colon): 2.98 µM | GI50 (UO-31 renal): 1.38 µM | TGI (UO-31 renal): 2.96 µM

Cc1ccc(-c2nc3c(C(=O)NCCN(C)C)cccc3[nH]2)cc1
TGI (SN12C renal): 63.5 µM | TGI (786-0 renal): > 100 µM | TGI (UACC-257 melanoma): 27.5 µM | TGI (HCT-116 colon): 20.1 µM | TGI (HCT-15 colon): 58.2 µM | TGI (SNB-75 CNS): 52.4 µM | TGI (IGROV1 ovarian): 41.9 µM | TGI (A498 renal): 27.8 µM | TGI (HCC-2998 colon): 29.4 µM | TGI (UO-31 renal): 22.9 µM

O=C1/C(=C/c2ccc(Cl)cc2)CN(Cc2cn(CCNc3ccnc4cc(Cl)ccc34)nn2)C/C1=C\c1ccc(Cl)cc1
GI50 (SN12C renal): 1.08 µM | TGI (SN12C renal): 3.38 µM | GI50 (786-0 renal): 0.247 µM | TGI (786-0 renal): 0.616 µM | GI50 (UACC-257 melanoma): 1.59 µM | TGI (UACC-257 melanoma): 3.02 µM | GI50 (HCT-116 colon): 0.203 µM | TGI (HCT-116 colon): 0.436 µM | GI50 (HCT-15 colon): 0.308 µM | TGI (HCT-15 colon): 1.06 µM | GI50 (SNB-75 CNS): 1.22 µM | TGI (SNB-75 CNS): 2.63 µM | GI50 (IGROV1 ovarian): 0.276 µM | TGI (IGROV1 ovarian): 0.732 µM | GI50 (A498 renal): 1.14 µM | TGI (A498 renal): 2.37 µM | GI50 (HCC-2998 colon): 0.246 µM | TGI (HCC-2998 colon): 0.563 µM | GI50 (UO-31 renal): 0.242 µM | TGI (UO-31 renal): 0.698 µM
